The values that follow are results of earlier work, collected in US20080095831A1, “TOPICAL FORMULATION OF […] […] COMPOSITION FOR PERCUTANEOUS ABSORPTION OF […] ACTIVE AGENT” (priority 2006, published 2008).

Where a name gives a salt, the structure may show the parent alone.

For `CN(C)CCC=C1c2ccccc2CCc2ccccc21` [Amitriptline], the “solubility in water (in words)” value is “freely soluble”.
Turning to `CC/C(=C(\c1ccccc1)c1ccc(OCCN(C)C)cc1)c1ccccc1` [Tamoxifen citrate], in the data set on keloid cells, the collagen production result was “decrease” and the keloid fibroblast production result is reported as “inhibit”. Besides, the “effect on keloid cells” value in the data set on keloid cells (concentration of about 0.01%) is given as “deadly effect”.
For the compound `CC(=O)[C@H]1CC[C@H]2[C@@H]3CCC4=CC(=O)CC[C@]4(C)[C@H]3CC[C@]12C` [Progesterone], the “solubility in water (in words)” value was “insoluble”.
On to `CCCCC(C)(O)C/C=C/[C@H]1[C@H](O)CC(=O)[C@@H]1CCCCCCC(=O)OC` (mixture of isomers) [Misoprostol], for which the “solubility in water (in words)” value is recorded as “water-soluble”.
As for `O=[N+]([O-])O[C@H]1CO[C@H]2[C@@H]1OC[C@H]2O[N+](=O)[O-]` [Isosorbide dinitrate], the “solubility in water (in words)” value is on record as “sparingly soluble”.
In the case of `Clc1cccc(Cl)c1N=C1NCCN1` [clonidine hydrochloride], the “solubility in water (in words)” value is given as “freely soluble”.
As to `NC(=O)c1cccnc1` [nicotinamide], the “solubility in water (in words)” value was “freely soluble”.
